From article PMC4591261, “Design, Synthesis and Evaluation of 2,5-Diketopiperazines as Inhibitors of the MDM2-p53 Interaction” (PLoS ONE, 2015)
“And” between values parts separate entries of the source, which are not always exact repeats. Identical values can stand only once.

What was measured:
GST-MDM2 (1 – 188) = GST-MDM2 (1 – 188) (Homo sapiens, UniProt Q00987); test: Fluorescence polarisation (FP) assay, displacement of Texas Red labeled wild-type p53 peptide from MDM2; assay type: binding; details: for activity in the FP-assay (in words): tested concentrations up to 100 μM; for IC50: 1 μM GST-MDM2 (1-188), 15 nM Texas Red labeled wild-type p53 peptide, 1 h at r.t., 95% CI
Description: To evaluate the 2,5-DKPs as potential MDM2-p53 inhibitors, the same FP-assay was used as for the type III inhibitors.
The FP assay was performed in black 384-well microtiter plates at a final volume of 20 μL per well. […] Two to seven independent experiments of normalized data were combined into a data set, and then fit using a non-linear regression in GraphPad Prism with the formula log(inhibitor) vs. response – Variable slope (four parameters). Additionally the residuals of the curve fit were plotted to determine the fit of the theoretical curve. IC50 and 95% confidence intervals (CI) were determined from these graphs.

MDM2 [1] = biological target: T1, MDM2 (Homo sapiens, UniProt Q00987); test: Surface plasmon resonance (SPR) binding to biotinylated MDM2; details: 1:1 interaction model, 20 °C; for Rmax (RU): SPR
Description: To confirm binding to the target, surface plasmon resonance (SPR) was used to study interactions of 52RR and 52RS with MDM2 [41, 42].
MDM2 was minimally biotinylated by reaction with EZ-Link Sulfo-NHS-LC-LC-Biotin (Thermo Scientific). The biotin reagent was added to the protein at a 0.5:1 molar ratio, and the reaction was incubated on ice for 3-4 hours. Unconjugated biotin was removed by processing the samples through two Zeba Spin Desalting Columns (Thermo Scientific) that had been equilibrated with storage buffer (20 mM Bis-Tris pH 6.5, 200 mM NaCl, 20 mM dithiothreitol, 20% glycerol). Bovine serum albumin (BSA) was added to the reaction at a final concentration of 0.1 mg/mL immediately prior to processing through the spin columns to improve recovery.^2 The biotinylated protein was aliquotted, flash-frozen and stored at -80° C for use in subsequent binding experiments.
SPR experiments were conducted at 20 °C using a SensiQ Pioneer optical biosensor (SensiQ Technologies). Neutravidin (Thermo Scientific) was covalently immobilized on a polysaccharide hydrogel-coated gold surface (COOH5 chip; SensiQ Technologies) using routine amine coupling chemistry in immobilization buffer (10 mM HEPES pH 7.4, 150 mM NaCl, 0.005% Tween20). Carboxyl groups on the hydrogel were activated with N-ethyl-N´-(3-dimethylaminopropyl) carbodiimide (EDC) and N-hydroxysuccinimide (NHS), and neutravidin was injected in 10 mM sodium acetate pH 5.0 until immobilization levels of ~3000-3400 RU were achieved. Remaining active sites were blocked by reaction with ethanolamine. The instrument was primed with binding buffer (20 mM Tris pH 8.0, 100 mM NaCl, 5 mM dithiothreitol, 0.005% Tween20, 5% glycerol, 5% DMSO), and biotinylated MDM2 was injected until ~1070 RU of protein was captured. Unoccupied biotin-binding sites of neutravidin on both the reference and protein surfaces were blocked with amine-PEG2-biotin (Thermo Scientific) to minimize potential non-specific binding by the compounds.^3
The data were processed, double-referenced, solvent corrected and analyzed^4 using the software package Qdat (version 2.5.5.12 , BioLogic Software). The equilibrium dissociation constants (KD) were determined by fitting the data to a 1:1 (Langmuir) interaction model.

MDM2 [2] = biological target: T1, MDM2; test: WaterLOGSY NMR binding experiment; details: compound 200 µM, MDM2 protein 5 µM, 298 K
Description: All NMR experiments were performed at 298 K (25 °C) using a Bruker Avance 600 MHz spectrometer equipped with TCI cryogenic gradient probe. Compounds (20 mM stock solution in DMSO-D6) were added to buffer (25mM HEPES, pH7.2, 150 mM NaCl, 2mM TCEP) or buffer containing MDM2 protein (5 µM) to give final compound concentration of 200 µM. One-dimensional (1D) ^1H- and WaterLOGSY (water-ligand observed via gradient spectroscopy)^8 NMR spectra were recorded for compounds, protein, and compounds plus protein, respectively. NMR spectra were processed using Bruker Topspin software.

Sequence of GST-MDM2 (1 – 188) (Q00987 1-188): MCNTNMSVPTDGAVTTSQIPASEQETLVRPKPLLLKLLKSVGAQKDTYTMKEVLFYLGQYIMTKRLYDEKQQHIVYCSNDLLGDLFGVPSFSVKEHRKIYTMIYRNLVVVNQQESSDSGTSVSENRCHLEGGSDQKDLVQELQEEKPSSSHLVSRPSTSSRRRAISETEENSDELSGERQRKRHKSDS
T1 sequence (Q00987 whole entry): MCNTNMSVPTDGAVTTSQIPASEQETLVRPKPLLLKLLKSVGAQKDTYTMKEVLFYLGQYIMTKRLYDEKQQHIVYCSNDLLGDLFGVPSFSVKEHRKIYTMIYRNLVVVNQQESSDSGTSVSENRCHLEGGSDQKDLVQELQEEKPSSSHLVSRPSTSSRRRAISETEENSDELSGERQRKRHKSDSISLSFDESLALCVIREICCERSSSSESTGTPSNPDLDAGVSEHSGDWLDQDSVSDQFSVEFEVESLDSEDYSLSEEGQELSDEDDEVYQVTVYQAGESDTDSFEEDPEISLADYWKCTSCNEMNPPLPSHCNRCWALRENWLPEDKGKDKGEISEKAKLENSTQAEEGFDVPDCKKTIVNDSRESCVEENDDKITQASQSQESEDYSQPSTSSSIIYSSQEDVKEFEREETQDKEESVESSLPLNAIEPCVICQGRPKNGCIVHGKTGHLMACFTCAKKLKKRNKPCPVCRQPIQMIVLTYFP

SMILES | activity in the FP-assay (in words) (GST-MDM2 (1 – 188)) | IC50 (GST-MDM2 (1 – 188)) | Rmax (RU) (MDM2 [1]) | binding to MDM2 by WaterLOGSY (in words) (MDM2 [2]) | ka (M^-1s^-1) (MDM2 [1]; SPR kinetic analysis) | kd (s^-1) (MDM2 [1]; SPR kinetic analysis)
CC(C)(C)OC(=O)CN1C(=O)[C@@H](c2ccc(Cl)cc2)N(c2ccc(Cl)cc2)C(=O)[C@H]1Cc1ccccc1 [44RR, (3R,6R)-3-Benzyl-1,6-(di-4-chlorophenyl)-4-(tert-butoxy-carbonyl-methyl)-piperazine-2,5-dione] | inactive |  |  |  |  | 
CC(C)(C)OC(=O)CN1C(=O)[C@H](c2ccc(Cl)cc2)N(c2ccc(Cl)cc2)C(=O)[C@H]1Cc1ccccc1 [44RS, (3R,6S)-3-Benzyl-1,6-(di-4-chlorophenyl)-4-(tert-butoxy-carbonyl-methyl)-piperazine-2,5-dione] | inactive |  |  |  |  | 
O=C(O)CN1C(=O)[C@@H](c2ccc(Cl)cc2)N(c2ccc(Cl)cc2)C(=O)[C@H]1Cc1ccccc1 [52RR, (3R,6R)-3-Benzyl-1,6-(di-4-chlorophenyl)-4-(carboxy-methyl)-piperazine-2,5-dione] |  | 31.4 µM and 31 µM | 16.6 (± 0.2) RU | confirmed binding |  | 
O=C(O)CN1C(=O)[C@H](c2ccc(Cl)cc2)N(c2ccc(Cl)cc2)C(=O)[C@H]1Cc1ccccc1 [52RS, (3R,6S)-3-Benzyl-1,6-(di-4-chlorophenyl)-4-(carboxy-methyl)-piperazine-2,5-dione] |  | 28 µM | 16.8 (± 0.2) RU | confirmed binding |  | 
COc1ccc(C2=N[C@@H](c3ccc(Cl)cc3)[C@@H](c3ccc(Cl)cc3)N2C(=O)N2CCNC(=O)C2)c(OC(C)C)c1 [Nutlin-3a] |  |  | 28.4 (± 0.1) RU |  | 9.10 (± 0.01) x 10^5 M^-1s^-1 | 2.80 (± 0.01) x 10^-2 s^-1
